Experimental data taken from patent US9598362B2, “Benzidine derivative, method for preparing same, and pharmaceutical composition containing benzidine derivative for treating liver disease caused by hepatitis C virus” (priority 2013, dated 2017).
Where two headings read alike, the source gives them in different places.

Assays:
hERG = hERG (Homo sapiens, UniProt Q12809); assay: hERG ligand binding, fluorescence polarization with red fluorescent hERG channel ligand
[1] = Evaluation of physiological activity: pharmacokinetics after oral or intravenous administration; format: in vivo; conditions: male mouse, 5 mg/kg; for AUC(0-inf): read-out: AUC0-∞, value up to infinite time from the administration; for half-life: read-out: T1/2 (time) (converted)
Procedure: The following experiment was performed to evaluate physiological activity of the compound prepared in Example 16 by observing the pharmacokinetic changes.
Particularly, the compound of Example 16 was orally or intravenously administered to male mouse, followed by observation of the pharmacokinetic changes. For the oral administration, the compound of Example 16 was dissolved to make the concentration 2.5 mg/ml. The prepared compound solution was orally administered at the dose of 5 mg/kg, followed by drawing blood from the jugular vein of the mouse at regular intervals. For the intravenous administration, tubes were inserted in the jugular vein and the femoral vein of male mouse. The compound solution was intravenously injected through the femoral vein at the dose of 5 mg/kg, followed by drawing blood from the mouse at regular intervals. The drawed blood was centrifuged to separate plasma. The plasma and urine samples were pretreated with a proper organic solvent, followed by investigation by LC-MS/MS. At this time, LC-MS/MS was performed by using mass spectrometry (Agilent 6460 QQQ, Agilent), LC lamp (Agilent 1260, Agilent), autosampler (Agilent 1260, Agilent), and data analysis system (Peak Sample Data System, Analyst 1.4.2, Applied Biosystems), and the conditions for LC-MS/MS were as follows; sample injection amount: 10 μl, flow rate: 0.3 ml/min, column: […] C18 column (50 mm×2.0 mm, 12 nm, YMC), elution buffer: acetonitrile: 10 mM ammoniumformate buffer=90:10 (v/v), and MS/MS condition: MPM mode: HCV (m/z 761.8170.1), IS (imipramine, m/z 281.286.2). The blood concentration over the administration period of the compound treated via oral or intravenous administration was analyzed, from which the noncompartmental pharmacokinetic parameter was calculated by using WinNonlin (Pharsight, USA).

HCV replicon NK/R2AN = assay: Evaluation of anti-HCV activity 2: inhibition of HCV replication, huh7.5.1 cells with replicon NK/R2AN, renilla luciferase; format: cell-based; conditions: for EC50: Hepatitis C virus
Procedure: To evaluate the anti-HCV activity, that is the activity to inhibit HCV replication, of the compound represented by formula 1 of the present invention, the following experiment was performed.
The hepatoma cell line huh7.5.1 having NK/R2AN, the replicon with which the replication and translation of HCV could be measured, was distributed in a 12-well cell culture plate at the density of 50,000 cells/well. The cells were cultured in DMEM (Dulbecco's Modified Eagle's Medium 12800-017, GIBCO Co.) supplemented with 10% (v/v) FBS (Fetal Bovine Serum SH30406.02, Hyclone Co.), 1% (v/v) antibiotics (penicillin/streptomycin solution SV30010, Hyclone Co.), and G418 (600 μg/mL, Calbiochem) in a 37° C. 6.0% CO2 incubator (CO2 Incubator 311, Forma Scientific Co, Lnc. USA) for 24 hours to lead cell attachment on the plate. Then, the cells were inoculated with HCV having renilla luciferase gene as a reporter for 3 hours. Upon completion of the virus inoculation, the cell culture medium was replaced with the medium containing the compounds prepared in Examples 1˜24 were added to the culture medium at the concentrations of 40 pM˜1 μM each. The cells were cultured in a 37° C. 6.0% CO2 incubator (CO2 Incubator 311, Forma Scientific Co, Lnc. USA) for 3 days. Three days after the infection, the cell culture medium was collected to measure the cytotoxicity in the following Experimental Example 3. The cells attached on the plate were washed with PBS (phosphate buffered saline) and then lysed by treating 100 μl of 1× passive lysis buffer (Promega, E1941). The cell lysate (10 μl) was added to renilla luciferase assay reagent (50 μl) in renilla luciferase assay system (Promega, E2820), followed by measurement of luminescence for 10 seconds using the luciferase measure program with Luminometer (GLOMAX 20/20 Luminometer, Promega). At this time, the measurement of luminescence was performed in triplicate with the groups treated with the compounds of Examples 1˜24 and the non-treated control group. The mean value was calculated and compared. The luminescence of each compound over the concentration was converted into EC50 (half maximal effective concentration) by using sigma plot program, and the results are shown in Table 3. At this time, when EC50 was under 100 pM, it was marked as A; when EC50 was in the range of 100 pM 1 nM, it was marked as B; when EC50 was in the range of 1 nM˜100 nM, it was marked as C; and when EC50 was over 100 nM, it was marked as D. The results are shown in Table 3.

Chain of hERG (Q12809 whole entry): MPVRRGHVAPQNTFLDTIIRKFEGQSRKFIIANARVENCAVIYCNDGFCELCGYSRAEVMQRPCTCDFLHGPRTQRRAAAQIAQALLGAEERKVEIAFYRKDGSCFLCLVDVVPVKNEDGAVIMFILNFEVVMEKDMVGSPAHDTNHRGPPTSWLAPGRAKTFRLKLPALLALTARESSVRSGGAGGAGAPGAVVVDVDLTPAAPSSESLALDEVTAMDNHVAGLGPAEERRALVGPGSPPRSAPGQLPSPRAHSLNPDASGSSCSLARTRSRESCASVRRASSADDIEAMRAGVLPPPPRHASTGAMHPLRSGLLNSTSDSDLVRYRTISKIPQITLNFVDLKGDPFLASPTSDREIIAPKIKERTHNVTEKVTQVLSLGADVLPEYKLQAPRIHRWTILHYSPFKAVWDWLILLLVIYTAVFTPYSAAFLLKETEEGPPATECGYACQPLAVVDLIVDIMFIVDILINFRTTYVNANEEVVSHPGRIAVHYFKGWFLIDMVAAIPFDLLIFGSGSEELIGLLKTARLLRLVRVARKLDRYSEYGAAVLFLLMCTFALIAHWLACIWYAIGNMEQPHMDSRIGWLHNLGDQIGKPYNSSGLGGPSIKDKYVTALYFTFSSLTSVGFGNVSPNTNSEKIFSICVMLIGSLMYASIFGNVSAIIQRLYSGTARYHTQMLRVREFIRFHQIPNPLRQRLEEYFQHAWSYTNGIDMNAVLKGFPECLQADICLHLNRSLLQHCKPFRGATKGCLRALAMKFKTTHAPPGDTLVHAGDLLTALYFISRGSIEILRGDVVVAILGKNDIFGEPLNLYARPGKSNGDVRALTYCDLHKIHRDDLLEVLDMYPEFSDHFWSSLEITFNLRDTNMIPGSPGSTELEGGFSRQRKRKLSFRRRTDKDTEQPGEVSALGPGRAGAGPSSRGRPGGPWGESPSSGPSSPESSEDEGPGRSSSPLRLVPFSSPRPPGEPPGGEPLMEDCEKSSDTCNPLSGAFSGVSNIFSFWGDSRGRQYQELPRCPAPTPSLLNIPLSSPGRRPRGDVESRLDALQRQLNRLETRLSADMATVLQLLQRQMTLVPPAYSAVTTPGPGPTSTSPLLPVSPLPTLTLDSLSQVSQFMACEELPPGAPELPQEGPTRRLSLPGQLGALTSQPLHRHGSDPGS

Structure (SMILES): COC(=O)N[C@@H](C(=O)N1CCC[C@H]1C(=O)Nc1ccc(-c2ccc(NC(=O)[C@@H]3CCCN3C(=O)[C@H](NC(=O)OC)c3ccccc3)cc2)cc1)c1ccccc1 [Example 16, dimethyl(1S,1′S)-2,2′-((2S,2′S)-2,2′-(biphenyl-4,4′-diylbis(azandiyl))bis(oxomethylene)bis(pyrrolidine-2,1-diyl))bis(2-oxo-1-phenylethane-2,1-diyl)dicarbamate]
- IC50 (hERG): 9.8 µM
- AUC0-t ([1]; intravenous injection): 9160 ± 1030 ng·h/mL
- AUC0-∞ ([1]; intravenous injection): 9370 ± 1060 ng·h/mL
- AUC0-t ([1]; oral administration): 1830 ± 565 ng·h/mL
- AUC0-∞ ([1]; oral administration): 2500 ± 498 ng·h/mL
- Tmax (time) ([1]; oral administration): 2 ± 1.73 time
- Cmax ([1]; oral administration, plasma): 188 ng/mL
- AUC0-t ([1]; plasma, iv, intravenously injected, read-out: AUC0-24, value up to 24 hours from the administration): 9160 ng·h/mL
- AUC(0-inf) ([1]; plasma, iv, intravenously injected): 9370 ng·h/mL
- bioavailability ([1]; plasma, po relative to iv, printed in the Intravenous Injection column, read-out: Ft, bioavailability): 20%
- AUC0-t ([1]; plasma, po, orally administered, read-out: AUC0-24, value up to 24 hours from the administration): 1830 ng·h/mL
- AUC(0-inf) ([1]; plasma, po, orally administered): 2500 ng·h/mL
- clearance ([1]; plasma, intravenous injection): 8.97 mL/min/kg
- half-life ([1]; plasma, intravenous injection): 4.09 ± 3.06 h
- Vd ([1]; plasma, intravenous injection, read-out: Vss): 1.31 ± 0.144 L/kg
- half-life ([1]; plasma, oral administration): 15 ± 9.5 h
- Tmax ([1]; plasma, oral administration, read-out: time to reach the maximum concentration (Tmax)): 2 h
- EC50 (HCV replicon NK/R2AN; Huh-7.5.1): < 0.0001 µM
- EC50 (HCV replicon NK/R2AN; Huh-7.5.1, 72 h, read-out: EC50 grade): < 0.0001 µM
- EC50 (in words) (HCV replicon NK/R2AN; duplicated HCV treated with compound): significantly low
